# Test: Persistence of triplet state quenchers in solution
# Assay type: physicochemical
# From the text: FIGS. 11A-11B show the persistence of cyclooctatetraene (FIG. 11A) and COT-PEG3-sulfonate (triethylammonium salt) (FIG. 11B) in solution.
# Cyclooctatetraene (COT)-based triplet state quenchers (TSQs) were used in place of or in addition to the currently used Trolox TSQ. TSQs can enhance photophysical properties of dyes in single-molecule studies, and the optimal TSQ can depend on the class of dye used. Trolox and COT quench triplet states by different mechanisms.
# Water-soluble COT conjugates were made to improve solution stability of these TSQs (FIG. 11). The derivatives were made via various amide coupling reactions between COT-CO2H and the appropriate amine. COT-CO2H can be purchased or made in two steps from the parent COT compound.
smiles,measurement,setting,value
"C1=CC=CC=CC=C1 [unsubstituted COT, cyclooctatetraene]",stability (persistence) in solution,also in the presence of mineral oil,its concentration drops over time
same,water solubility,sequencing buffer,not fully water-soluble

# Source: patent US20250341526A1, “NOVEL DYES” (Quantum-Si Incorporated, priority 2024, published 2025)
